Data reported in patent EP4678643A1, “KRAS INHIBITOR COMPOUND, PHARMACEUTICAL COMPOSITION THEREOF, AND USE THEREOF” (Sunshine Lake Pharma Co., Ltd., priority 2023, dated 2024).
Read-outs that look alike come from different tables or passages of the source.

Legend:
[1] = test system: pERK in H358 cells (KRAS p.G12C); assay: Inhibitory effect on intracellular pERK by In-Cell Western assay, H358; assay type: cell-based; settings: Homo sapiens, NCI-H358, pERK inhibition, compound incubation 3 h
Description: (§1) 1. Determination of Inhibitory Effect on Intracellular pERK by In-Cell Western Assay
(§2) (1) On the first day, the following cells were revived and cultured with the corresponding culture medium and incubated at 37 °C, 5% CO2 until confluence.
(§3) (2) On the third day, the culture medium was removed, the cells were rinsed once with DPBS, 2 mL of TrypLE™ trypsin was added for digestion, and the cells were placed at room temperature until the cells detached. (3) 5 mL fresh culture medium was added to resuspend cells to terminate the digestion, and the cells were gently pipetted and centrifuged at 1000 rpm for 5 minutes at room temperature. (4) The supernatant was removed, and 5 mL fresh culture medium was added to resuspend the cells and count cells. (5) The cells were plated in a 384-well plate with appropriate cell concentration by adjusting with complete culture medium and incubated at 37 °C, 5% CO2 for overnight. (6) 200 nL of the prepared serial dilution compound (DMSO final concentration was 0.5%) was added and incubated at 37 °C, CO2 for 3 h (HPAC cell lines for 1 h). (7) The cells were fixed. (8) The cells were washed twice with PBS. (9) The blocking solution was added and the cells were incubated at room temperature for 1 h. (10) The blocking solution was removed, and the primary antibody (phospho-ERK Rabbit mAb + GAPDH (D4C6R) Mouse mAb) was added and the cells were incubated at 4 °C for overnight. (11) The cells were washed twice with PBST (PBS + 0.05% Tween 20) for 2 minutes each time. (12) PBST was removed and secondary antibody (IRDye 800CW Goat anti-Rabbit IgG (H+L) + IRDye 680RD Goat anti Mouse IgG (H+L)) was added and incubated away from light at room temperature. (14) Secondary antibody was discarded and the cell was washed twice with PBST, 2 minutes each time. (15) 384-well plate was inverted and centrifuged at 1000 rpm at room temperature for 1 minute, and the 384-well plate was scanned with Odyssey CLx. (16) Data analysis: • a) Assay stability check was peformed by using DMSO and reference control data: [formula] [formula] • b) nonlinear fitting of Compound IC50: Y = Bottom + (Top−Bottom)/(1+10^(∧)((LogIC50−X)×HillSlope)). [formula]

[2] = test system: pERK in MKN1 cells (KRAS WTdep); assay: Inhibitory effect on intracellular pERK by In-Cell Western assay, MKN1; assay type: cell-based; settings: Homo sapiens, MKN-1, pERK inhibition, compound incubation 3 h
Description: as §1, §2, §3

[3] = test system: pERK in HPAC cells (KRAS p.G12D); assay: Inhibitory effect on intracellular pERK by In-Cell Western assay, HPAC; assay type: cell-based; settings: Homo sapiens, pERK inhibition, compound incubation 1 h, read-out: HPAC, IC50 (nM) KRASp.G12D
Description: as §1, §2
as §3, with “[formula] • b) nonlinear fitting of Compound IC50: Y = Bottom + (Top−Bottom)/(1+10^(∧)((LogIC50−X)×HillSlope)). [formula]” left out

[4] = test system: pERK in NCI-H727 cells (KRAS p.G12V); assay: Inhibitory effect on intracellular pERK by In-Cell Western assay, NCI-H727; assay type: cell-based; settings: Homo sapiens, pERK inhibition, compound incubation 3 h
Description: as §1, §2
as §3, with “[formula] • b) nonlinear fitting of Compound IC50: Y = Bottom + (Top−Bottom)/(1+10^(∧)((LogIC50−X)×HillSlope)). [formula]” left out

[5] = test system: pERK in A549 cells (KRAS p.G12S); assay: Inhibitory effect on intracellular pERK by In-Cell Western assay, A549; assay type: cell-based; settings: Homo sapiens, pERK inhibition, compound incubation 3 h
Description: as §1, §2, §3

[6] = test system: pERK in HCT 116 cells (KRAS p.G13D); assay: Inhibitory effect on intracellular pERK by In-Cell Western assay, HCT 116; assay type: cell-based; settings: Homo sapiens, pERK inhibition, compound incubation 3 h
Description: as §1, §2, §3

[7] = test system: pERK in AGS cells (KRAS G12D); assay: Inhibitory effect on intracellular pERK by In-Cell Western assay, AGS; assay type: cell-based; settings: pERK inhibition, compound incubation 3 h, read-out: AGS, IC50 (nM) KRAS p.G12D
Description: as §1, §2
as §3, with “CLx.” for “CLx. (16) Data analysis: • a) Assay stability check was peformed by using DMSO and reference control data: [formula] [formula] • b) nonlinear fitting of Compound IC50: Y = Bottom + (Top−Bottom)/(1+10^(∧)((LogIC50−X)×HillSlope)). [formula]”

KRAS G12D-GTP & cRAF = KRAS G12D-GTP & cRAF (Homo sapiens, UniProt P01116, G12D); assay: KRAS G12D/cRAF Binding Assay (HTRF); settings: competitive binding, 665/615 nm ratio
KRAS G12D-GTP & cRAF, sequence (P01116 1-188 isoform P01116-2 G12D): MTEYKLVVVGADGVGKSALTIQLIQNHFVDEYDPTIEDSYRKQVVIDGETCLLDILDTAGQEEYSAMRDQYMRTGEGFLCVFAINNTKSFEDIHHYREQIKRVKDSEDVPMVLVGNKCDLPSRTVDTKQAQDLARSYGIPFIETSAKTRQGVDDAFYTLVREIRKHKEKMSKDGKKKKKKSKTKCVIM
Excerpt: 2. KRAS G12D/cRAF Binding Assay

KRAS G12D-GTP & SOS1 = KRAS G12D-GTP & SOS1 (Homo sapiens, UniProt P01116, G12D); assay: KRAS G12D/SOS1 Binding Assay (HTRF); settings: competitive binding, 665/615 nm ratio
KRAS G12D-GTP & SOS1, sequence (P01116 1-188 isoform P01116-2 G12D): as above
Excerpt: 3. KRAS G12D/SOS1 Binding Assay

[8] = mouse, in vivo
Description: Pharmacokinetic evaluation of the compounds of the present invention by intravenous injection or oral gavage in mice
The inventors conducted a pharmacokinetic evaluation of the compounds of this invention in mice.
The compounds of the present invention were administered to test animals in the form of a solution of 5% DMSO + 30% PEG400 + 65% saline, 10% DMSO + 10% Kolliphor HS15 + 80% Saline, 10% DMSO + 89% (25% SBE-B-CD) + (2% HCl), 20% PEG400 + 80% sterile water for injection, or 10% DMA + 10% HS15 + 30% PEG400 + 50% sterile water for injection. The animals were fasted for 12 hours before administration and had free access to water. For the intravenous administration group, the dose was 2 mg/kg/day, qd. Venous blood samples (approximately 0.15 mL) were collected at the following time points after administration: 0.083, 0.25, 0.5, 1.0, 2.0, 5.0, 7.0 and 24 hours. EDTA-K2 was pre-added to the blood collection tube as an anticoagulant. Blood samples were centrifuged at 12,000 rpm for 2 minutes, and plasma was collected and stored at -20°C or -70°C. For the intravenous administration group, the dose was 5 mg/kg/day, qd. Venous blood samples (approximately 0.15 mL) were collected at the following time points after administration: 0.25, 0.5, 1.0, 2.0, 5.0, 7.0 and 24 hours. EDTA-K2 was pre-added to the blood collection tube as an anticoagulant. Blood samples were centrifuged at 12,000 rpm for 2 minutes, and plasma was collected and stored at -20°C or -70°C.
The collected plasma samples were processed (frozen plasma was thawed at room temperature and vortexed for 15 seconds. 10-20 µL of plasma was added to 120-150 µL of acetonitrile solution containing the internal standard and vortexed for 5 minutes. The sample was centrifuged at 4,000 rpm for 5 minutes. 100 µL of the supernatant was added to 120-150 µL of methanol/water (v/v = 1/1) and mixed). The concentrations of the compounds in the plasma were analyzed by LC-MS/MS.

| Structure (SMILES) | IC50 [1] | IC50 [2] | IC50 [3] | IC50 [4] | IC50 [5] | IC50 [6] | IC50 [7] | IC50 (KRAS G12D-GTP & cRAF) | IC50 (KRAS G12D-GTP & SOS1) | pharmacokinetic properties in mice [8] | IC50 ([7]; Homo sapiens, AGS, 3 h) |
| --- | --- | --- | --- | --- | --- | --- | --- | --- | --- | --- | --- |
| C#Cc1c(F)ccc2cc(O)cc(-c3nc(C#CC)c4c(N5CCCOCC5)nc(OCC56CCCN5CC(F)C6)nc4c3F)c12 (centres unmarked) [Compound 1] | 0.4 nM | 1.9 nM | 0.3 nM | 1 nM | 0.6 nM | 2.1 nM | 0.2 nM | 7.9 nM | 16.3 nM | good pharmacokinetic properties | – |
| C#Cc1c(F)ccc2cc(O)cc(-c3nc(C#CCC)c4c(N5CCCOCC5)nc(OCC56CCCN5CC(F)C6)nc4c3F)c12 (centres unmarked) [Compound 3] | 0.7 nM | 3.7 nM | 0.6 nM | 2.2 nM | – | – | – | 7.4 nM | 14.8 nM | – | 0.5 nM |
